# Laboratory results from PubChem BioAssay (NCI).
#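 Growth conditions: 96-well plates. Treatment: test compound, 48 hours, 5 concentrations. Analysis: linear interpolation between bracketing concentrations; unreached endpoints set to highest concentration. Abbreviation: GI50, concentration required for 50% inhibition of growth. At the TGI there is no net growth.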
# Experiments:
# Assay in all cases: growth of human tumour cells (NCI), 48 h
# [1] = test system: HCT-116 colon
# [2] = test system: HOP-92 NSCLC
# [3] = test system: A498 renal
# [4] = test system: NCI-H226 lung
# [5] = test system: HCC-2998 colon
# [6] = test system: BT-549 breast
# [7] = test system: SK-OV-3 ovarian
# [8] = test system: K-562 leukemia
# [9] = test system: MOLT-4 leukemia
# [10] = test system: ACHN renal
# [11] = test system: OVCAR-8 ovarian
# [12] = test system: IGROV1 ovarian
# [13] = test system: SNB-75 CNS
# [14] = test system: NCI-H522 lung
# [15] = test system: COLO 205 colon
# [16] = test system: NCI/ADR-RES ovarian
# [17] = test system: SNB-19 CNS
# [18] = test system: RXF 393 renal
# [19] = test system: U251 CNS
# [20] = test system: HS 578T breast
# [21] = test system: SW-620 colon
# [22] = test system: MDA-MB-435
# [23] = test system: EKVX NSCLC
# [24] = test system: 786-0 renal
# [25] = test system: MALME-3M melanoma
# [26] = test system: PC-3 prostate
# [27] = test system: SN12C renal
# [28] = test system: CAKI-1 renal
# [29] = test system: LOX IMVI melanoma
# [30] = test system: HL-60(TB) leukemia
# [31] = test system: HOP-62 NSCLC
# [32] = test system: HT29 colon
# [33] = test system: HCT-15 colon
# [34] = test system: KM12 colon
# [35] = test system: OVCAR-5 ovarian
# [36] = test system: M14 melanoma
# [37] = test system: SK-MEL-28 melanoma
# [38] = test system: OVCAR-3 ovarian
# [39] = test system: DU-145 prostate
# [40] = test system: T-47D breast
# [41] = test system: NCI-H460 lung
# [42] = test system: NCI-H23 lung
# [43] = test system: SK-MEL-2 melanoma
# [44] = test system: CCRF-CEM leukemia
# [45] = test system: UO-31 renal
# [46] = test system: MDA-MB-231 breast
# [47] = test system: MCF7 breast
# [48] = test system: SF-268 CNS
# [49] = test system: SK-MEL-5 melanoma
# [50] = test system: A549 NSCLC
# [51] = test system: TK-10 renal
# [52] = test system: SF-295 CNS
# [53] = test system: UACC-62 melanoma
# [54] = test system: RPMI-8226 leukemia
# [55] = test system: SF-539 CNS
# [56] = test system: MDA-MB-468 breast
# [57] = test system: UACC-257 melanoma
# [58] = test system: OVCAR-4 ovarian
# [59] = test system: SR leukemia
smiles,measurement,setting,value
CCCSc1nc(Nc2ccc(S(N)(=O)=O)cc2)c(C#N)c(-c2cc(OC)c(OC)c(OC)c2)n1,GI50,[1],4.38 µM
same,TGI,[1],> 100 µM
same,GI50,[2],3.98 µM
same,TGI,[2],63.6 µM
same,GI50,[3],> 100 µM
same,TGI,[3],> 100 µM
same,GI50,[4],6.07 µM
same,TGI,[4],> 100 µM
same,GI50,[5],7.53 µM
same,TGI,[5],> 100 µM
same,GI50,[6],3.24 µM
same,TGI,[6],32.5 µM
same,GI50,[7],55.1 µM
same,TGI,[7],> 100 µM
same,GI50,[8],3.52 µM
same,TGI,[8],> 100 µM
same,GI50,[9],2.53 µM
same,TGI,[9],8.95 µM
same,GI50,[10],4.88 µM
same,TGI,[10],> 100 µM
same,GI50,[11],5 µM
same,TGI,[11],> 100 µM
same,GI50,[12],25.9 µM
same,TGI,[12],> 100 µM
same,GI50,[13],2.09 µM
same,TGI,[13],> 100 µM
same,GI50,[14],10.7 µM
same,TGI,[14],> 100 µM
same,GI50,[15],8.77 µM
same,TGI,[15],> 100 µM
same,GI50,[16],4.6 µM
same,TGI,[16],> 100 µM
same,GI50,[17],11.7 µM
same,TGI,[17],> 100 µM
same,GI50,[18],2.36 µM
same,TGI,[18],9.67 µM
same,GI50,[19],5.37 µM
same,TGI,[19],> 100 µM
same,GI50,[20],7.33 µM
same,TGI,[20],> 100 µM
same,GI50,[21],8.34 µM
same,TGI,[21],> 100 µM
same,GI50,[22],4.9 µM
same,TGI,[22],> 100 µM
same,GI50,[23],5.27 µM
same,TGI,[23],> 100 µM
same,GI50,[24],10.4 µM
same,TGI,[24],> 100 µM
same,GI50,[25],5.78 µM
same,TGI,[25],75.4 µM
same,GI50,[26],2.8 µM
same,TGI,[26],> 100 µM
same,GI50,[27],5.77 µM
same,TGI,[27],> 100 µM
same,GI50,[28],5.76 µM
same,TGI,[28],> 100 µM
same,GI50,[29],3.68 µM
same,TGI,[29],> 100 µM
same,GI50,[30],2.93 µM
same,TGI,[30],33.2 µM
same,GI50,[31],11.1 µM
same,TGI,[31],> 100 µM
same,GI50,[32],6.89 µM
same,TGI,[32],> 100 µM
same,GI50,[33],3.4 µM
same,TGI,[33],> 100 µM
same,GI50,[34],4.77 µM
same,TGI,[34],> 100 µM
same,GI50,[35],32.7 µM
same,TGI,[35],> 100 µM
same,GI50,[36],6.74 µM
same,TGI,[36],> 100 µM
same,GI50,[37],7.29 µM
same,TGI,[37],> 100 µM
same,GI50,[38],6.07 µM
same,TGI,[38],> 100 µM
same,GI50,[39],7.93 µM
same,TGI,[39],> 100 µM
same,GI50,[40],2.76 µM
same,TGI,[40],51 µM
same,GI50,[41],5.46 µM
same,TGI,[41],> 100 µM
same,GI50,[42],15.7 µM
same,TGI,[42],> 100 µM
same,GI50,[43],11.8 µM
same,TGI,[43],> 100 µM
same,GI50,[44],3.44 µM
same,TGI,[44],> 100 µM
same,GI50,[45],2.59 µM
same,TGI,[45],> 100 µM
same,GI50,[46],7.23 µM
same,TGI,[46],> 100 µM
same,GI50,[47],4.23 µM
same,TGI,[47],> 100 µM
same,GI50,[48],9.84 µM
same,TGI,[48],> 100 µM
same,GI50,[49],2.75 µM
same,TGI,[49],12.1 µM
same,GI50,[50],4.31 µM
same,TGI,[50],> 100 µM
same,GI50,[51],16.1 µM
same,TGI,[51],> 100 µM
same,GI50,[52],3.75 µM
same,TGI,[52],28.3 µM
same,GI50,[53],6.25 µM
same,TGI,[53],> 100 µM
same,GI50,[54],3.56 µM
same,TGI,[54],> 100 µM
same,GI50,[55],21.4 µM
same,TGI,[55],> 100 µM
same,GI50,[56],6.22 µM
same,TGI,[56],65.4 µM
same,GI50,[57],19.2 µM
same,TGI,[57],> 100 µM
same,GI50,[58],6.39 µM
same,TGI,[58],> 100 µM
CC(C)Sc1nc(NCCc2c[nH]c3ccccc23)c(C#N)c(-c2ccc(F)cc2)n1,GI50,[1],3.75 µM
same,TGI,[1],14.1 µM
same,GI50,[2],13.1 µM
same,TGI,[2],30.1 µM
same,GI50,[3],16.4 µM
same,TGI,[3],32.2 µM
same,GI50,[4],9.18 µM
same,TGI,[4],21.9 µM
same,GI50,[5],7.67 µM
same,TGI,[5],20.2 µM
same,GI50,[6],11.7 µM
same,TGI,[6],25 µM
same,GI50,[7],17.2 µM
same,TGI,[7],49.3 µM
same,GI50,[8],4.87 µM
same,TGI,[8],> 100 µM
same,GI50,[9],6.25 µM
same,TGI,[9],39.8 µM
same,GI50,[10],11.1 µM
same,TGI,[10],23.1 µM
same,GI50,[11],11.6 µM
same,TGI,[11],26.1 µM
same,GI50,[12],12.3 µM
same,TGI,[12],26.3 µM
same,GI50,[13],13.6 µM
same,TGI,[13],47.2 µM
same,GI50,[14],12.5 µM
same,TGI,[14],26 µM
same,GI50,[15],7.98 µM
same,TGI,[15],20.7 µM
same,GI50,[17],14.9 µM
same,TGI,[17],31 µM
same,GI50,[18],4.32 µM
same,TGI,[18],16.5 µM
same,GI50,[19],7.65 µM
same,TGI,[19],20.2 µM
same,GI50,[20],10.2 µM
same,TGI,[20],43.4 µM
same,GI50,[21],7.84 µM
same,TGI,[21],21.1 µM
same,GI50,[22],13.4 µM
same,TGI,[22],26.8 µM
same,GI50,[23],11.4 µM
same,TGI,[23],24.5 µM
same,GI50,[24],10.6 µM
same,TGI,[24],22.7 µM
same,GI50,[25],14.1 µM
same,TGI,[25],27.2 µM
same,GI50,[26],5.38 µM
same,TGI,[26],40.7 µM
same,GI50,[27],12.5 µM
same,TGI,[27],25.1 µM
same,GI50,[28],10.1 µM
same,TGI,[28],22.2 µM
same,GI50,[29],3.65 µM
same,TGI,[29],12.8 µM
same,GI50,[30],11.4 µM
same,TGI,[30],54.5 µM
same,GI50,[31],1.97 µM
same,TGI,[31],4.12 µM
same,GI50,[32],4.61 µM
same,TGI,[32],16 µM
same,GI50,[33],3.74 µM
same,TGI,[33],14.7 µM
same,GI50,[34],4.92 µM
same,TGI,[34],17.9 µM
same,GI50,[35],12.6 µM
same,TGI,[35],25.1 µM
same,GI50,[36],9.86 µM
same,TGI,[36],23.9 µM
same,GI50,[37],12.7 µM
same,TGI,[37],27.1 µM
same,GI50,[38],13.3 µM
same,TGI,[38],27.7 µM
same,GI50,[39],12 µM
same,TGI,[39],27 µM
same,GI50,[40],4.82 µM
same,TGI,[40],17.3 µM
same,GI50,[41],4.25 µM
same,TGI,[41],15.1 µM
same,GI50,[42],14.3 µM
same,TGI,[42],28.3 µM
same,GI50,[44],6.34 µM
same,TGI,[44],65.6 µM
same,GI50,[45],11.6 µM
same,TGI,[45],24.1 µM
same,GI50,[46],9.08 µM
same,TGI,[46],22.1 µM
same,GI50,[47],5.42 µM
same,TGI,[47],18.8 µM
same,GI50,[48],12.8 µM
same,TGI,[48],42.2 µM
same,GI50,[59],2.92 µM
same,TGI,[59],28.7 µM
same,GI50,[49],6.05 µM
same,TGI,[49],18.6 µM
same,GI50,[50],12.7 µM
same,TGI,[50],26.4 µM
same,GI50,[51],17.4 µM
same,TGI,[51],32.4 µM
same,GI50,[52],12 µM
same,TGI,[52],25.6 µM
same,GI50,[53],12.9 µM
same,TGI,[53],26.6 µM
same,GI50,[54],6.7 µM
same,TGI,[54],49.9 µM
same,GI50,[55],10.3 µM
same,TGI,[55],23.6 µM
same,GI50,[56],3.21 µM
same,TGI,[56],12 µM
same,GI50,[57],15.4 µM
same,TGI,[57],32.1 µM
same,GI50,[58],11.4 µM
same,TGI,[58],28.8 µM
